Laboratory results: patent publication US20190038597A1, “PREVENTION OF VASCULAR AND CARDIAC FIBROSIS VIA IRE1ALPHA INHIBITION” (McMaster University, priority 2017, published 2019)

How the values were obtained:
GRP78, GRP94 and PDI = experiment: Western blot of ER chaperone / ER stress marker expression in VSMCs; format: cell-based, rat
Experimental: VSMCs were treated with tunicamycin (1 μg/ml) and either 4μ8c (30 μM) or STF-083010 (60 μM) for 6 h or 24 h. (A) Agarose gel for assessment of XBP1 splicing after 6 h of treatment with tunicamycin and densitometric quantification. (B) Western blot for assessment of ER chaperone expression after 24 h tunicamycin treatment with or without inhibition of IRE1α by 4μ8c. Data is presented as mean±SEM. *, p<0.05 vs. Vehicle; #, p<0.05 vs. Tm.
(§1) VSMCs were cultured in DMEM/F12 containing 1% FBS. Confluent cells were treated with L-ascorbic acid-2-phosphate (100 μg/ml) and either TGF-β1 (5 ng/ml) or Ang II (1 μM). (A) Agarose gel for assessment of TGF-β1-induced XBP1 splicing in VSMCs after 24 h. (B) Picro-Sirius Red assay for measurement of collagen deposition induced by combined TGF-β1 and AA2P treatment after 72 h, and inhibition by 4μ8c and STF-083010. (C) Western blot for assessment of collagen chaperone expression after treatment of TGF-β1 and 4μ8c for 48 h. *, p<0.05. (D) Measurement of Ang II-induced collagen production and inhibition by 4μ8c and STF-083010 after 72 h.
VSMCs were isolated from the aortas of 5-week old WKY rats using the explant method^29. The thoracic aorta was removed from the animal and placed in ice-cold 5× Antibiotics-Antimycotics solution (ThermoFisher). The adventitia was gently removed and the aorta was cut longitudinally. The endothelial layer was removed by gentle scraping with forceps. The aorta was cut into 3 mm^2 squares and placed on a 6 well plate in DMEM/F12 medium containing 10% fetal bovine serum (FBS). Explants were incubated undisturbed in a 5% CO2 incubator at 37° C. for 1 week and then passaged. […]
Cells were lysed in 1× Laemmli buffer and protein content was quantified using the BioRad DC Protein Assay (BioRad, Mississauga, Canada). […]

VSMCs = experiment: Picro-Sirius Red assay of collagen synthesis in VSMCs; format: cell-based, rat
Experimental: as §1
VSMCs were isolated from the aortas of 5-week old WKY rats using the explant method^29. The thoracic aorta was removed from the animal and placed in ice-cold 5× Antibiotics-Antimycotics solution (ThermoFisher). The adventitia was gently removed and the aorta was cut longitudinally. The endothelial layer was removed by gentle scraping with forceps. The aorta was cut into 3 mm^2 squares and placed on a 6 well plate in DMEM/F12 medium containing 10% fetal bovine serum (FBS). Explants were incubated undisturbed in a 5% CO2 incubator at 37° C. for 1 week and then passaged. Sprague-Dawley renal fibroblasts were purchased (Cell Biologics) and cultured in low glucose DMEM/F12 medium containing 10% FBS, streptomycin (100 μgimp, and penicillin (100 U/ml, Invitrogen, Burlington, ON). Cells between passages 5 and 10 were used for experiments. Cells were cultured in medium containing 1% FBS overnight before treatment.
Collagen synthesis was measured using a Picro-Sirius Red-based assay as previously described^30. Briefly, cells cultured on a 96 well plate were fixed in methanol for 10 minutes at −20° C. Cells were washed once with PBS and incubated with Picrosirius Red stain (0.1% Direct Red 80 in saturated picric acid) for 1 h at room temperature. After the staining solution was removed, the cells were washed three times with 0.1% acetic acid and then imaged. The dye was then eluted with 0.1 N NaOH for 10 minutes on a rocking platform. Absorbance at 540 nm was measured using a Spectramax Plus Microplate Reader (Molecular Devices).
Cells were co-treated with either 4μ8c or S′TF-083010 to inhibit IRE1α endonuclease activity. TGF-β1 induced XBP1 splicing after 24 h, which was blocked by co-treatment with 4μ8c (FIG. 2A). Collagen production was measured using a Picro-Sirius Red-based colorimetric assay. TGF-β1 combined with AA2P induced collagen synthesis in the VSMCs, which was inhibited by co-treatment with 4μ8c or STF-083010 (FIG. 2B).

[1] = test system: SHR/L-NAME model of hypertension; experiment: Collagen content / fibrosis of vessels in L-NAME-treated SHRs; format: in vivo, rat; details: 18 days
Experimental: 12-14 week old male SHRs were randomized to receive vehicle, L-NAME (50 mg/L) or L-NAME and 4μ8c (2.5 mg/kg/day i.p.) for 18 days. Aortas and carotid arteries were removed at sacrifice for mechanical and structural analysis. (A) Picro-Sirius Red staining of aorta and carotid artery sections (B) Determination of soluble collagen content in aorta and carotid arteries by Picro-Sirius Red-based assay. Stress-strain curves (C,E), elastic modulus-stress lines (D,F) and the slope of the elastic modulus-stress lines (G,H) were calculated. Data is presented as mean±SEM. *, p<0.05 vs. NT; #, p<0.05 vs. L-NAME. N≥4 per group; 2-5 segments of the thoracic aorta were analyzed per animal. In C to F, lines of best fit are bound by 95% confidence intervals (dotted lines). *, p<0.05.
12-14 week old male SHRs were used to determine the effect of pharmacological IRE1α inhibition on L-NAME-induced vascular stiffening. They were maintained on a 12-hour light-dark cycle with rat chow and water ad libitium. Animals were implanted with radio-telemetry devices (Data Science International, St. Paul, Minn., USA) one week before the start of the study. […]
The wet weight of aortic tissues was determined. […]
Tissues were fixed in 4% paraformaldehyde and subsequently embedded in paraffin. […] Collagen area density was calculated by dividing the PSR-stained area by the total area of the vessel.

Structure (SMILES): Cc1cc(=O)oc2c(C=O)c(O)ccc12 [4μ8c, 7-Hydroxy-4-methyl-2-oxo-2H-chromene-8-carbaldehyde]
- elevated expression levels of ER stress markers GRP78, GRP94 and PDI (GRP78, GRP94 and PDI; 24 h tunicamycin treatment, FIG. 1B): reduced
- TGF-β1-increased expression of collagen chaperones and ER stress markers GRP78, GRP94 and PDI (GRP78, GRP94 and PDI; TGF-β1 48 h, FIG. 2C): lowered
- collagen synthesis induced by TGF-β1 combined with AA2P (VSMCs; 72 h, co-treatment, FIG. 2B): inhibited
- collagen synthesis induced by Ang II (VSMCs; Ang II (1 μM) 72 h, FIG. 2D): blocked
- Collagen content in homogenized aortic tissue ([1]; L-NAME+4μ8c group, PSR-based colorimetric assay): 47.10±2.88 μg/mg tissue
- fibrosis and vascular stiffness in the hypertensive animals ([1]; SHR/L-NAME, 4μ8c 2.5 mg/kg/day i.p.): reduced
